Results on ten compounds are retold here after patent EP0197829A1, “5H-pyrido[3',4':4,5]pyrrolo[3,2-c]pyridine derivatives, process for their preparation and their antitunour activity” (SANOFI, priority 1985, dated 1986).

Molecules are shown by their SMILES. pIC50: −log10 of the molar value. “And” between values parts separate entries of the source, which are not always exact repeats. Identical values can stand only once. Like-named read-outs stand apart in the source and are kept apart here.

Data set [1] is described as follows: in vivo. Also on record: species or system souris. To be noted: mouse, ip. The procedure:
Ainsi, l'administration à des souris hybrides CDF1 saines, en une injection unique par la voie intrapéritonéale, de doses croissantes des composés à tester (5 mg, 10 mg, 20 mg, 40 mg/kg) a permis de constater que, à ces doses, les produits étaient parfaitement tolérés puisque le taux de survivants était de 100 p. 100.
Dans les mêmes conditions, administrés à des souris BDF1 saines, les taux de survivants étaient de 100 p. 100 jusqu'à 100 mg/kg pour les dérivés 1, 3 et 9 et jusqu'à 200 mg/kg pour les dérivés 2 et 8.

The test system of data set [2] is lignée tumorale leucémie L 1210. The data set is described as follows: In vitro cytotoxicity on L 1210 leukemia cell culture. The following applies: Mus musculus, L1210; concentration inhibiting cell proliferation by 50 p. 100, after 48 h contact; read-out: ID 50 (the source's name). The class given is cell-based. Here is the method:
1) In vitro : (PAOLETTI et al., Chem. Biol. Interaction, 1979, 25, 45-58).
L'activité cytotoxique des composés de l'invention a été évaluée par des essais in vitro. Ces essais consistent à ajouter des concentrations croissantes du composé à tester à une culture cellulaire de la lignée tumorale leucémie L 1210 en phase exponentielle de croissance. Les cellules sont incubées à 37°C dans une étuve à C02 et comptées toutes les 24 heures. Le calcul de l'ID 50 (concentration du produit exprimée en micromole 1^-1 qui inhibe la prolifération cellulaire à 50 p. 100) est effectué après 48 heures de contact. Ainsi déterminées, les ID 50 des composés de l'invention sont rassemblées dans le tableau I ci-après : […]

Data set [3] deals with leucémie P 388. In kind it is in vivo, souris hybrides CDF1. From the text: (§1) L'activité antitumorale a été testée in vivo sur différentes tumeurs selon le protocole général suivant : Toutes les souris mâles ou femelles sont inoculées par voie intrapéritonéale au jour Jo avec une quantité déterminée de cellules tumorales viables, variable selon la tumeur.
(§2) Elles sont ensuite réparties en différents lots. Chaque lot correspondant aux animaux traités par le produit à tester à une dose déterminée est composé de lO souris. Dans ce cas, le produit à tester est dissous dans l'eau distillée et il est administré, pendant n jours (J1-Jn) variables selon le protocole choisi, par voie intrapéritonéale à raison de 0,1 ml par lO g de poids des souris traitées, les doses du produit administré étant précisées dans les tableaux ci-dessous.
(§3) Le lot "Contrôle négatif", correspondant aux animaux qui ne sont pas traités par un produit, comprend 2 √N animaux, N étant égal au nombre total de souris traitées par un produit.
(§4) Enfin, tous lés essais sont conduits parallèlement à l'étude d'un lot appelé "Contrôle positif" de 10 animaux qui est traité par une molécule active, variable selon le protocole choisi, dans les mêmes conditions que les lots traités par le produit à tester, afin de valider l'essai.
(§5) L'activité antitumorale est évaluée en considérant l'augmentation du temps de survie des animaux traités par rapport à celui des animaux du lot "Contrôle négatif" selon la formule : • Jour médian de survie des animaux traités à une T/C = dose donnée de produit x 100 • Jour médian de survie des animaux "Contrôle négatif"
(§6) Un composé est considéré comme étant actif lorsque la valeur du rapport T/C est égale ou supérieure à 125 % selon le protocole retenu. Il est toxique lorsque cette valeur est égale ou inférieure à 85 %. Le produit est également considéré comme toxique lorsque la variation pondérale, exprimée en grammes et calculée par la formule : Poids moyen du lot mesuré au jour 5 - poids moyen du même lot au jour 1, est égale ou inférieure à -4g . a) Test de la leucémie P 388 (GERAN et al., Cancer Chemother, 1972, 2, 07-57).
Les essais sont effectués avec des souris hybrides CDF1 inoculées par voie intrapéritonéale avec […] leucémiques de la lignée P 388. Le composé à tester est administré pendant 5 jours (Jl-J5). Le contrôle positif du test est le 5-fluorouracile qui est administré dans les mêmes conditions.
[…] Un composé est considéré comme étant actif lorsque le rapport T/C est supérieur à 127 %.

Data set [4] deals with réticulosarcome M5-M5076. The experiment in a line: M5-M5076 reticulosarcoma test in vivo. Also on record: species or system souris hybrides BDF1. To be noted: 160 mg/kg i.p. J1, 5, 9, 13, 17.
Description: as §1, §2, §3, §4, §5, §6
d) Test du réticulosarcome M5-M5076.
Les essais sont effectués avec des souris hybrides BDF1 inoculées avec 10^6 cellules de la lignée M5-M5076. Le composé à tester est administré 5 fois successivement de façon séquentielle (Jl, 5, 9, 13, 17). Le contrôle positif du test est le cyclophosphamide administré dans les mêmes conditions. Le nombre d'animaux survivants est évalué au jour J 75. Un composé est considéré comme actif lorsque le rapport T/C est supérieur ou égal à 125 %.

In data set [5] the test system is mélanome B 16. The data set is described as follows: B 16 melanoma test in vivo. Also on record: species or system souris hybrides BDF1; Jour médian de survie: unit not given here. To be noted: 0,5 mg/kg i.p. J1-J9.
Description: as §1, §2, §3, §4, §5, §6
c) Test du mélanome B 16 (GERAN et al., Cancer Chemother, 1972, 2, 07-57).
Les essais sont effectués avec des souris hybrides BDF1 inoculées avec O,5 ml d'un homogénat de mélanome B 16 réalisé à partir de 1 g de tumeur dans 10 ml de sérum physiologique. Le composé à tester est administré pendant 9 jours (J1-J9). Le contrôle positif du test est le Cis- platine administré dans les mêmes conditions. Le nombre d'animaux survivants est évalué au jour J 60. Un composé est considéré comme étant actif lorsque le rapport T/C est supérieur ou égal à 125 %.

For data set [6], the system named is leucémie L 1210. The data set is described as follows: L 1210 leukemia test in vivo. The following applies: 20 mg/kg i.p. J1-J5. Details: species or system souris hybrides CDF1.
Description: as §1, §2, §3, §4, §5, §6
b) Test de la leucémie L 1210 (GERAN et al., Cancer Chemother, 1972, 2, 07-57).
Les essais sont effectués avec des souris hybrides CDF1 inoculées avec 10^5 cellules leucémiques de la lignée L 1210. Le composé à tester est administré pendant 5 jours (J1-J5). Le contrôle positif du test est le 5-fluorouracile administré dans les mêmes conditions. Le nombre d'animaux survivants est évalué au jour J 60. Un composé est considéré comme étant actif lorsque le rapport T/C est supérieur ou égal à 125 %.

Where [7] appears, read: 5 mg/kg i.p. J1-J5, at day J 40.
[8] abbreviates: 10 mg/kg i.p. J1-J5, at day J 40.
[9] abbreviates: 20 mg/kg i.p. J1-J5, at day J 40.
Where [10] appears, read: 40 mg/kg i.p. J1-J5, at day J 40.
Where [11] appears, read: 80 mg/kg i.p. J1-J5, at day J 40.

For `Cc1cnc(NCCNCCO)c2c1[nH]c1ccncc12` [Dérivé N° 2, [[[(hydroxy-2 éthyl-l)amino]-2 éthyl-1]-amino]-1 méthyl-4 5-H pyrido[3',4':4,5]pyrrolo[3,2-c]pyridine], the survival in data set [1] (200 mg/kg) was found to be 100%.

`CCN(CC)CCCNc1ncc(C)c2c1c1cnccc1n2CC` [Dérivé N° 5, [(diéthylamino-3 propyl-1)amino]-1 méthyl-4 éthyl-5 5-H pyrido[3',4':4,5]pyrrolo[3,2-c]pyridine]: the pIC50 in data set [2] is 5.85.

`CCN(CC)CCCCNc1ncc(C)c2c1c1cnccc1n2C` [Dérivé N° 10, [(diéthylamino-4 butyl-1)amino]-1 diméthyl-4,5 5-H pyrido[3',4':4,5]pyrrolo[3,2-c]pyridine]: the pIC50 in data set [2] was 5.70.

`Cc1cnc(NCCCN(C)C)c2c1[nH]c1ccncc12` [Dérivé N° 3 bis, [(diméthylamino-3 propyl-1)amino]-1 méthyl-4 5-H pyrido[3',4':4,5]pyrrolo[3,2-c]pyridine]: the pIC50 in data set [2] was 6.80. The “Jour médian de survie” value in data set [3] (5 mg/kg i.p. J1-J5) was 15,83; in data set [3] (10 mg/kg i.p. J1-J5), 17,13; in data set [3] (20 mg/kg i.p. J1-J5), 20,33; in data set [3] (40 mg/kg i.p. J1-J5), 20,25; in data set [3] (50 mg/kg i.p. J1-J5), 22; in data set [3] (80 mg/kg i.p. J1-J5) it was 19,88. Also, the T/C % in data set [3] (5 mg/kg i.p. J1-J5) was found to be 145%; in data set [3] (10 mg/kg i.p. J1-J5), 156%; in data set [3] (20 mg/kg i.p. J1-J5), 186%; in data set [3] (40 mg/kg i.p. J1-J5), 184%; in data set [3] (50 mg/kg i.p. J1-J5) it was 181%; in data set [3] (80 mg/kg i.p. J1-J5), 181%. Besides, the Survivants was 0/10 in data set [3] (setting [7]); 0/10 in data set [3] (setting [8]); 0/10 in data set [3] (setting [9]); 0/10 in data set [3] (setting [10]); 1/10 à J 42 in data set [3] (50 mg/kg i.p. J1-J5, à J 42); 0/10 in data set [3] (setting [11]).

Regarding `O=P1(N(CCCl)CCCl)NCCCO1` (stereo not drawn) [Cyclophosphamide, cyclophosphamide, reference compound], in data set [4], the “Jour médian de survie” value is > 60 and > 71; the T/C % was >229% and >246%. Besides, the Survivants in data set [4] (at day J 75) was 9 and 6.

`CCCN(CCC)CCCNc1ncc(C)c2c1c1cnccc1n2C` [Dérivé N° 13, diméthyl-4,5[(dipropylamino-3 propyl-1)ami-no]-l 5-H pyrido[3',4':4,5]pyrrolo[3,2-c]pyridine]: the pIC50 in data set [2] was 5.49.

Consider `CCCN(CCC)CCCNc1ncc(C)c2[nH]c3ccncc3c12` [Dérivé N° 12, [(dipropylamino-3 propyl-1)amino]-1 méthyl-4 5-H pyrido[3',4':4,5]pyrrolo[3,2-c]pyridine], for which the pIC50 in data set [2] is 5.07.

`Cc1cnc(NCCCN(C)C)c2c3cnccc3n(C)c12` [Dérivé N° 9, diméthyl-4,5 [(diméthylamino-3 propyl-1)-amino]-1 5-H pyrido[3',4':4,5]pyrrolo[3,2-c]pyridine]: the pIC50 in data set [2] was 6.52. Also, the “Jour médian de survie” value was 15,75 in data set [3] (5 mg/kg i.p. J1-J5); 17,38 in data set [3] (10 mg/kg i.p. J1-J5); 19,33 in data set [3] (20 mg/kg i.p. J1-J5); 20,0 in data set [3] (40 mg/kg i.p. J1-J5); 8,25 in data set [3] (80 mg/kg i.p. J1-J5). Also, the T/C % is 136% in data set [3] (5 mg/kg i.p. J1-J5); 150% in data set [3] (10 mg/kg i.p. J1-J5); 167% in data set [3] (20 mg/kg i.p. J1-J5); 173% in data set [3] (40 mg/kg i.p. J1-J5); 71% in data set [3] (80 mg/kg i.p. J1-J5). Further, the Survivants in data set [3] (setting [7]), in data set [3] (setting [8]), in data set [3] (setting [9]), in data set [3] (setting [10]) and in data set [3] (setting [11]) was 0 throughout. In data set [1] (100 mg/kg), this compound showed a survival of 100%.

In the case of `[NH2][Pt]([NH2])([Cl])[Cl]` [Cis-platine, reference compound], in data set [5], the “Jour médian de survie” value is 30 and 31,0 and 40,0; the T/C % was 126% and 133% and 141%. For the same compound, the Survivants in data set [5] (at day J 60) amounted to 0.

With `O=c1[nH]cc(F)c(=O)[nH]1` [Fluorouracile, 5-fluorouracile, reference compound], the “Jour médian de survie” value in data set [6] is 16,0 and 18. Also, in data set [6], the T/C % was 178% and 195%. Moreover, the Survivants in data set [6] (at day J 60) is 0; in data set [3] (setting [9]), 0/10 and 0.
